Where “and” joins values, the source holds several entries; their conditions need not be identical. Equal entries are not always repeated.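 1) Cells in 96-well plates. 2) Compound, 48 h, 5 concentrations. 3) Linear interpolation between surrounding doses. 4) Unreached endpoint = highest concentration. At the GI50, growth is halved. TGI denotes the concentration required for complete inhibition of growth.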
How the values were obtained:
Test in all cases: DTP human tumour cell line panel, 48 h
NCI-H460 lung = system: NCI-H460 lung
RPMI-8226 leukemia = system: RPMI-8226 leukemia
HOP-62 NSCLC = system: HOP-62 NSCLC
IGROV1 ovarian = system: IGROV1 ovarian
PC-3 prostate = system: PC-3 prostate
SF-539 CNS = system: SF-539 CNS
CAKI-1 renal = system: CAKI-1 renal
HOP-92 NSCLC = system: HOP-92 NSCLC
HL-60(TB) leukemia = system: HL-60(TB) leukemia
COLO 205 colon = system: COLO 205 colon

| Structure (SMILES) | GI50 (NCI-H460 lung) | GI50 (RPMI-8226 leukemia) | TGI (HOP-62 NSCLC) | GI50 (IGROV1 ovarian) | GI50 (PC-3 prostate) | TGI (PC-3 prostate) | GI50 (SF-539 CNS) | TGI (SF-539 CNS) | GI50 (CAKI-1 renal) | TGI (CAKI-1 renal) | TGI (HOP-92 NSCLC) | GI50 (HL-60(TB) leukemia) | TGI (HL-60(TB) leukemia) | GI50 (COLO 205 colon) | TGI (NCI-H460 lung) [nM] | GI50 (HOP-62 NSCLC) [nM] | TGI (IGROV1 ovarian) [nM] | GI50 (HOP-92 NSCLC) [nM] | TGI (COLO 205 colon) [nM] | TGI (RPMI-8226 leukemia) [nM] |
| --- | --- | --- | --- | --- | --- | --- | --- | --- | --- | --- | --- | --- | --- | --- | --- | --- | --- | --- | --- | --- |
| C[n+]1c2cc(N)ccc2cc2ccc(N)cc21 | 460 nM [middle of 4 runs] | 1.89 µM [middle of 4 runs] | 2450 nM and 10700 nM and 3700 nM | 1.46 µM [middle of 4 runs] | 696 nM [middle of 4 runs] | 5.8 µM [middle of 4 runs] | 1.33 µM [middle of 4 runs] | 3.69 µM [middle of 4 runs] | 1.04 µM [middle of 4 runs] | 9.03 µM [middle of 4 runs] | 5.78 µM [middle of 4 runs] | 2.83 µM [middle of 4 runs] | 9.76 µM [middle of 4 runs] | 441 nM [middle of 4 runs] | – | – | – | – | – | – |
| CCN(CC)c1ccc(C(O)C2=CC(=O)c3ccccc3C2=O)cc1 (centres undefined) | 10800 nM | – | 4330 nM | 1530 nM | 156 nM | 959 nM | 2000 nM | 4180 nM | 2310 nM | 7400 nM | 942 nM | 7100 nM | > 100000 nM | 1580 nM | > 32400 | 2030 | 3070 | 210 | 3590 | – |
| Cc1cc(N2CCOCC2)nc(N[C@@H]2CCC[C@H](Nc3ccnc4cc(Cl)ccc34)C2)n1 | 2660 nM | 2090 nM | 4360 nM | 2230 nM | 2380 nM | 6010 nM | 1610 nM | 3090 nM | – | – | 3080 nM | 1980 nM | 3870 nM | 1680 nM | 8640 | 1730 | 6600 | 1440 | 3330 | 5250 |
| Cn1c2c(c3ccc([N+](=O)[O-])cc3c1=O)C(=O)c1ccccc1-2 | > 100000 nM | – | > 100000 nM | > 100000 nM | > 100000 nM | > 100000 nM | > 100000 nM | > 100000 nM | 80500 nM | > 100000 nM | > 100000 nM | > 100000 nM | > 100000 nM | > 100000 nM | > 100000 | > 100000 | > 100000 | > 100000 | > 100000 | – |
| CCC(=C/[C@H](C)C/C=C/C(C)=C/[C@@H](C)C(=O)[C@@H](C)[C@H](O)[C@@H](C)CC)/C=C/[C@@H]1OC(=O)C=C[C@H]1C | – | < 10 nM | < 10 nM | < 10 nM | < 10 nM | 1520 nM | < 10 nM | – | < 10 nM | < 10 nM | < 10 nM | < 10 nM | < 10 nM | < 10 nM | – | < 10 | – | < 10 | < 16.6 | < 10 |
| Oc1ccc(C(c2ccc(O)cc2)c2ccc(O)cc2)cc1 | – | – | – | – | – | 66500 nM | – | 46000 nM | – | 40000 nM | 60500 nM | – | 41500 nM | – | 46300 | – | 35200 | – | 20800 | 56800 |
| CCN(CC)CC(O)CNc1c2ccc([N+](=O)[O-])cc2nc2cc(OC)c(OC)cc12 (centres undefined) | 185 nM | 359 nM | – | 305 nM | 329 nM | 1050 nM | 350 nM | 1450 nM | 4500 nM | 16600 nM | 642 nM | 2060 nM | 6810 nM | – | 669 | – | 1510 | 164 | – | 2140 |

Reference: PubChem BioAssay (NCI)
